Data reported in patent EP2948433B1, “ATGLISTATIN AS LIPASE INHIBITOR” (Technische Universität Graz, priority 2013, dated 2014).

Key:
Type in all cases: biochemical
murine HSL = molecular target: T1, murine HSL (Mus musculus, UniProt P54310); experiment: HSL activity, overexpressed in COS-7 lysates, triolein substrate; details: Fig. 2C
T1 construct: His-tag (vector pcDNA4/HisMax); made in house; host or cells: COS-7 cells, transient transfection, 1,000 x g lysate
T1 sequence (P54310 1-759): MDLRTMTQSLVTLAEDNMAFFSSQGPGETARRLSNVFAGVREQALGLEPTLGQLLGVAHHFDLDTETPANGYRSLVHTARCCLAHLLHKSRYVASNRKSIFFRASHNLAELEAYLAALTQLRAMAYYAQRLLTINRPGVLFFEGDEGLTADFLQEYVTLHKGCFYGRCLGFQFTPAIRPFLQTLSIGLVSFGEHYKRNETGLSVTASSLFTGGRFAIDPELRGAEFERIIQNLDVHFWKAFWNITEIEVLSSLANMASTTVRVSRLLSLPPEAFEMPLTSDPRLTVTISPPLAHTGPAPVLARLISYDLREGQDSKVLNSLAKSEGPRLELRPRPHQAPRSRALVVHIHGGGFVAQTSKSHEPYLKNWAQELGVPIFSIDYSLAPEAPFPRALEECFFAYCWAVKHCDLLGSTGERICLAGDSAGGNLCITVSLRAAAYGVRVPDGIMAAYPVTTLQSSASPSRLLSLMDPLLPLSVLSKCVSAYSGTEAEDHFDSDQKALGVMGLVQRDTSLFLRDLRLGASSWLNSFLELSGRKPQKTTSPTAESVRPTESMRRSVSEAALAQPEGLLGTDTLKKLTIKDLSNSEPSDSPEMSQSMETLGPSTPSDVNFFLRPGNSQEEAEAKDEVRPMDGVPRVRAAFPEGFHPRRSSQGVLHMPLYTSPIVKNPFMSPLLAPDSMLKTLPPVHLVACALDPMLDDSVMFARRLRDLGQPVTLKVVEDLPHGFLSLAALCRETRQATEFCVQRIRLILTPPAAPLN
Description: (§1) • Figure 1. Structure of compounds 1 to 3 (reference) and compound 4 (atglistatin) and effect on ATGL activity. For determination of lipase activity, lysates of E. coli overexpressing recombinant strep-tagged ATGL and CGI-58 were incubated with a substrate containing radiolabeled [9,10-3H(N)]-triolein. Subsequently, FA were extracted and quantified by liquid scintillation counting. Lysates of cells expressing empty vector were set as blank. Inhibitors were solubilized in DMSO and added at the indicated concentrations. DMSO alone was used as negative control. (A) Structure and IC50 values of compounds 1-4. (B) Dose-dependent inhibition of ATGL in the presence of compound 3 and 4. […] (C) Lineweaver-Burk plots for kinetic analysis of ATGL inhibition. Experiments were performed at varying concentrations of substrate (0.05 - 3 mM) in presence and absence of compound 4 (Atglistatin). […] Lipase activity of ATGL, HSL, lipoprotein lipase, and pancreatic lipase was determined using triolein as substrate. MGL activity was detected in the presence of rac-(1,3)-monooleoylglycerol as substrate. […] The release of FA (A) and glycerol (B) in the media was determined using commercial kits. […] At the indicated timepoints blood was taken retroorbitally and plasma parameters were measured using commercial kits. […] 8 h after gavage blood was taken retroorbitally and plasma parameters were measured using commercial kits. […]

murine MGL = molecular target: T2, murine MGL (Mus musculus, UniProt O35678); experiment: MG hydrolase activity, purified MGL, rac-1-(3)-oleoylglycerol substrate; details: Fig. 2C
T2 construct: made in house; host or cells: E. coli, purified
T2 sequence (O35678 1-303): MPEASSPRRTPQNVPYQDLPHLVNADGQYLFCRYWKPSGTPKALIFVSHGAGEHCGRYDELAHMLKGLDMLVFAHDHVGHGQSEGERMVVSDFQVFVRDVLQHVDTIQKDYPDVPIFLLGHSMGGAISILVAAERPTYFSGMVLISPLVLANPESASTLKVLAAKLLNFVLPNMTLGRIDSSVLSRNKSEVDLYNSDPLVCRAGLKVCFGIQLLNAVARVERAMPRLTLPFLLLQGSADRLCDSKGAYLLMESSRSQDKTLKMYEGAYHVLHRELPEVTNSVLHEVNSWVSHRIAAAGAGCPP
Description: as §1

[1] = system: TG hydrolase activity of wild-type WAT; experiment: TG hydrolase activity in WAT lysates of wild-type mice; details: up to, at a concentration of 40 µM
Description: For determination of lipase activity, lysates of E. coli overexpressing recombinant strep-tagged ATGL and CGI-58 were incubated with a substrate containing radiolabeled [9,10-3H(N)]-triolein. Subsequently, FA were extracted and quantified by liquid scintillation counting. Lysates of cells expressing empty vector were set as blank. Inhibitors were solubilized in DMSO and added at the indicated concentrations. DMSO alone was used as negative control. […] Data are presented as mean +/-S.D. of triplicate determinations. […] Lipase activity of ATGL, HSL, lipoprotein lipase, and pancreatic lipase was determined using triolein as substrate. MGL activity was detected in the presence of rac-(1,3)-monooleoylglycerol as substrate. Inhibitors were solubilized in DMSO and added at the indicated concentrations. DMSO alone was used as negative control. (A) Dose-dependent inhibition of TG hydrolase activity in WAT lysates obtained from wild-type and ATGL-ko mice.

## CN(C)C(=O)Nc1cccc(-c2ccc(N(C)C)cc2)c1 [Atglistatin, atglistatin]
Murine HSL
  effect on HSL activity: only minor effects
Murine MGL
  effect on MGL activity: only minor effects
[1]
  inhibition of TG hydrolase activity of wild-type WAT: up to 78%
